Measurements from article PMC11773056, “The zymogenic form of SARS-CoV-2 main protease: A discrete target for drug discovery” (The Journal of Biological Chemistry, 2024).

Biological target: T1, M^pro expressed from mCherry-repM^pro-eGFP (total protease, all forms) (Severe acute respiratory syndrome coronavirus 2, UniProt P0DTD1)
T1 construct: gene rep
Test: cell-based
Conditions: read-out: HEK293T cells, reporter mCherry-repM^pro-eGFP / Total inhibition EC50

O=C(Oc1cncc(C(F)(F)F)c1)c1cccc2[nH]ccc12 [compound 1, Compound 1]
EC50: 12.1 ± 2.8 µM
